1 compound from ChEMBL document CHEMBL5260820, “Discovery of novel steroidal histamine H3 receptor antagonists/inverse agonists” (Bioorg Med Chem Lett, 2017) can be followed below.

Series [1] deals with T1, Histamine H3 receptor (Homo sapiens, UniProt Q9Y5N1). The series is described as follows: Antagonist activity at human histamine H3 receptor expressed in CHO-K1 cells assessed as inhibition of imetit-stimulation ERK1/2 phosphorylation by ELISA analysis. The class given is cell-based.
Series [2] can be described thus: Terminal half-life in Wistar rat plasma at 3 mg/kg, po or iv measured upto 5 hrs by HPLC-MS/MS analysis. As to conditions: read-out: beta t1/2 (converted). The class given is ADME, organism-based.
Series [3] can be described thus: Thermodynamic […] of the compound measured after 24 hrs by HPLC-UV-MS analysis. The class given is physicochemical. To be noted: read-out: Therm_solubility.
Series [4] can be described thus: Stability in rat microsomes. The class given is ADME, Microsome.
Series [5] deals with T1, Histamine H3 receptor. Put plainly: Displacement of N-alpha-[methyl-3H]-methylhistamine dihydrochloride from recombinant human histamine H3 receptor expressed in CHO-K1 cells assessed as inhibition constant incubated for 30 mins by liquid scintillation analysis. The class given is cell-based.
The nature of series [6]: Displacement of [3H]quinuclidinyl benzilate from Wistar rat cortex muscarinic AChR assessed as inhibition constant by liquid scintillation counting analysis. The class given is tissue-based.
Series [7] in a line: Stability in human microsomes. The class given is ADME, Microsome.
The species named for series [8] is Rattus norvegicus. Put plainly: Displacement of [3H]quinuclidinyl benzilate from Wistar rat cortex muscarinic AChR at 3 uM by liquid scintillation counting analysis relative to control. The class given is tissue-based.
In series [9] the target is T1, Histamine H3 receptor. Put plainly: Inverse agonist activity at recombinant human histamine H3 receptor expressed in CHO-K1 cells preincubated for 10 mins followed by [35S]GTPgammaS addition and measured after 60 mins by TopCount NXT based scintillation analysis. The class given is cell-based.
The target of series [10] is T1, Histamine H3 receptor. The series is described as follows: Inverse agonist activity at recombinant human histamine H3 receptor expressed in CHO-K1 cells assessed as maximal efficacy preincubated for 10 mins followed by [35S]GTPgammaS addition and measured after 60 mins by TopCount NXT based scintillation analysis relative to control. The class given is cell-based. To be noted: time 70.0 min.

A short description of series [11]: Apparent permeability in vinblastine treated human CaCo-2 cells. The class given is ADME, cell-based.
Series [12] is described as follows: Bioavailability in Wistar rat at 3 mg/kg, po or iv measured upto 5 hrs by HPLC-MS/MS analysis. The class given is ADME, organism-based. As to conditions: in vivo.
Series [13] can be described thus: Volume of distribution in Wistar rat at 3 mg/kg, po or iv measured upto 5 hrs by HPLC-MS/MS analysis. The class given is ADME, organism-based. As to conditions: in vivo.
The subject of series [14] is Rattus norvegicus. Put plainly: Anti-dipsogenic activity in imetit-induced Wistar rat model assessed as inhibition of imetit-induced water intake at 10 mg/kg, po preadministered for 30 mins followed by imetit stimulation and measured after 40 mins relative to control. The class given is functional. As to conditions: 1.167 h, time 70 min.
A short description of series [15]: Ratio AUC in Wistar rat brain to plasma at 3 mg/kg, po or iv measured upto 5 hrs by HPLC-MS/MS analysis. The class given is ADME, organism-based. As to conditions: brain and plasma, read-out: Ratio AUC.
Series [16] concerns the target Histamine H3 receptor (Rattus norvegicus, UniProt Q9QYN8). The series is described as follows: Displacement of N-alpha-[methyl-3H]-methylhistamine dihydrochloride from Sprague-Dawley rat brain membrane histamine H3 receptor assessed as inhibition constant incubated for 30 mins by liquid scintillation counting analysis. The class given is cell membranes.
A short description of series [17]: Tmax in Wistar rat at 3 mg/kg, po or iv measured upto 5 hrs by HPLC-MS/MS analysis. The class given is ADME, organism-based. As to conditions: in vivo.
Series [18] is described as follows: Terminal half-life in Wistar rat brain at 3 mg/kg, po or iv measured upto 5 hrs by HPLC-MS/MS analysis. The class given is ADME, organism-based. As to conditions: read-out: beta t1/2 (converted).
Series [19] can be described thus: Selectivity index, ratio of Ki for displacement of [3H]quinuclidinyl benzilate from Wistar rat cortex muscarinic AChR to Ki for N-alpha-[methyl-3H]-methylhistamine dihydrochloride from Sprague-Dawley rat brain membrane histamine H3 receptor.

Values after ≈ are worked out from the molar mass of the structure shown.

T1 sequence (Q9Y5N1 whole entry): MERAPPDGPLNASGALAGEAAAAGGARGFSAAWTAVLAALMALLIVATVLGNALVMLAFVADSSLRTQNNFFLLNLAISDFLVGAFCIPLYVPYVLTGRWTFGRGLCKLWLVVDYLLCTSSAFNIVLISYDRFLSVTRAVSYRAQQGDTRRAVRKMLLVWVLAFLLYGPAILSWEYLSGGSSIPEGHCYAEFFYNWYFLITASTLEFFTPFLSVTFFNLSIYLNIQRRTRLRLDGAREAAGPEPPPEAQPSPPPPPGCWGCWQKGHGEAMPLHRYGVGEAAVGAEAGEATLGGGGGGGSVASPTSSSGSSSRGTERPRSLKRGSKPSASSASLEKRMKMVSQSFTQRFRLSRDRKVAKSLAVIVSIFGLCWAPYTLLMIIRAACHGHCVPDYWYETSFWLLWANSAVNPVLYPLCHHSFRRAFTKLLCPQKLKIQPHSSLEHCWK
Chain of Histamine H3 receptor (Rattus norvegicus, UniProt Q9QYN8) (Q9QYN8 whole entry): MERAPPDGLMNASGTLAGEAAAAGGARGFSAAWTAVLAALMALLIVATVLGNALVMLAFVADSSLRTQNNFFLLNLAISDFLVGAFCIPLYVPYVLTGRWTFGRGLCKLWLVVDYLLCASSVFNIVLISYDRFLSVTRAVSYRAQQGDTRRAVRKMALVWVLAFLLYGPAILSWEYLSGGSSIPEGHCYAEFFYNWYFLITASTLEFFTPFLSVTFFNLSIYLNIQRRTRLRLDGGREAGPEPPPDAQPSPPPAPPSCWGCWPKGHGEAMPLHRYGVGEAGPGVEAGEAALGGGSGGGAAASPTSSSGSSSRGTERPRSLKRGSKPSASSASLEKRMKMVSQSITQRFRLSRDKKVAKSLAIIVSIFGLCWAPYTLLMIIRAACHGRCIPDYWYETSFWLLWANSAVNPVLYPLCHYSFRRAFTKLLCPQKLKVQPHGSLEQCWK

For `C[C@]12CC[C@@H]3c4ccc(OCc5ccccn5)cc4CC[C@H]3[C@@H]1CC[C@@H]2N1CCCC1`, the half-maximal inhibitory concentration (IC50) in [1] is 50.8 nM. Besides, the half-life in series [2] and in [18] was 1.5 h in each case. Also, in series [3], the solubility thermodynamic at 24 h turned out to be 93 µM (≈ 38.7 µg/mL). The Stability is 67% in [4] and 93% in series [7]. Also, the Ki in [5] was found to be 2.2 nM; in series [6] it was 1080 nM; in series [16], 7.6 nM. In series [8], this compound returned an Activity of 51%. The EC50 in [9] was 1 nM. In addition, in series [10], the Emax was determined as 23%. The Papp in series [11] turned out to be 10.1 ×10⁻⁶ cm/s. In series [12], this compound gave a bioavailability of 25.4%. The Vd in series [13] was 19.7 L/kg. Also, the inhibition in vivo at 10 mg/kg in [14] is 122%. Moreover, the Kp at 5 h in series [15] was 41.1. In addition, the Tmax in series [17] was found to be 1 h. In addition, the Ratio Ki in series [19] came out at 141.
